In BindingDB's records for doi:10.1111/j.1747-0285.2008.00719.x (The Burnham Institute For Medical Research, 2008):

Molecular target: T1, Phosducin-like protein 3 (Homo sapiens, UniProt Q9H2J4)
T1 sequence (Q9H2J4 whole entry): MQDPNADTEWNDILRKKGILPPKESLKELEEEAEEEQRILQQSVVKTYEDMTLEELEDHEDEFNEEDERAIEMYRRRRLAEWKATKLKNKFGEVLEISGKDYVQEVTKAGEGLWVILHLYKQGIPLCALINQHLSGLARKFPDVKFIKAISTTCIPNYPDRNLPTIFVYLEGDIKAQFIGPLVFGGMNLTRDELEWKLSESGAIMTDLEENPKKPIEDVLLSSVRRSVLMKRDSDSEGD
Test: NMR Screening Assay
Settings: pH 7.5; 27 °C
Text: NMR-based screen of potential binders by using 1D Aliphatic 1H NMR experiment to investigate the potential role of the c-VIAF as a possible drug target viral infections validation and functional studies.

| Kd | SMILES |
| --- | --- |
| 76 µM | CCOC(=O)C(C)n1cnc2sc3c(c2c1=O)CCCC3 (configuration not stated) [BI-86-E12] |
| > 1000 µM | O=C(Cn1cnc2sc3c(c2c1=O)CCCC3)OCc1ccccc1 [BI-86-F2] |
| > 1000 µM | CCOC(=O)C(CC)n1cnc2sc3c(c2c1=O)CCCC3 (configuration not stated) [BI-86-E8] |
| 227 µM | CCOC(=O)Cn1cnc2sc3c(c2c1=O)CCC3 [2-(1-keto-7,8-dihydro-6H-cyclopenta[2,3]thieno[2,4-d]pyrimidin-2-yl)acetic acid ethyl ester] |
| > 1000 µM | O=c1[nH]nnc2sc3c(c12)CCCC3 [BI-86-F3] |
| > 1000 µM | CC(C)COC(=O)Cn1cnc2sc3c(c2c1=O)CCCC3 [BI-86-E11] |
| 16.5 µM | CCOC(=O)Cn1cnc2sc3c(c2c1=O)CCCC3 [BI-86-E6] |
